Laboratory results published in US20240116985A1, “STAPLED PEPTIDES AND METHODS THEREOF” (priority 2020, published 2024).
Values after ≈ are worked out from the molar mass of the structure shown. Where two headings read alike, the source gives them in different places.

Legend:
[1] = target: T1, full-length beta-Catenin (Uniprot ID P35222) (Homo sapiens, UniProt P35222); test: Fluorescence polarization IC50 (beta-catenin / 5FAM-TCF4 10-53 competition); format: binding
T1 construct: 10 nM full-length beta-Catenin (Uniprot ID P35222)
T1 sequence (P35222 1-781): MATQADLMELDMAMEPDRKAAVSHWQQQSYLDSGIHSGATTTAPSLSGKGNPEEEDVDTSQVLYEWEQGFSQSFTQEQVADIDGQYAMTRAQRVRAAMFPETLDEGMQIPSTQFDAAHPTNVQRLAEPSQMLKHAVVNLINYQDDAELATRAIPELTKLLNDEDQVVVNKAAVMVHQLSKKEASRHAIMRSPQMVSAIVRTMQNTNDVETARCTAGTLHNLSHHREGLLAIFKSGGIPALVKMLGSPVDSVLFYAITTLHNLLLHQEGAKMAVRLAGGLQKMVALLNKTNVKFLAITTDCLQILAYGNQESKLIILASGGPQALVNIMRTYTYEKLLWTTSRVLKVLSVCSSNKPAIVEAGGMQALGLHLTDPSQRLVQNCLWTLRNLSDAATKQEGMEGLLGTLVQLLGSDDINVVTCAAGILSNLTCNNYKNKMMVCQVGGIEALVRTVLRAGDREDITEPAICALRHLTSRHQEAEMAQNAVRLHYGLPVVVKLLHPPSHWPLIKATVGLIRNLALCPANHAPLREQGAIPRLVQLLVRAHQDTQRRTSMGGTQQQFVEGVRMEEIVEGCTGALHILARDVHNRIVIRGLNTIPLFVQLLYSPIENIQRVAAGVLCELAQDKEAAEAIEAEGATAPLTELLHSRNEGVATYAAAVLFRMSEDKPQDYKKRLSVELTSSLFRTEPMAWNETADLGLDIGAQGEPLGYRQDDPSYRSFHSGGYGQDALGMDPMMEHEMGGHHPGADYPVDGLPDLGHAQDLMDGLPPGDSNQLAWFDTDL

Solubility in PBS = format: physicochemical
How it was run: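 HPLC quantitation of peptide remaining in the PBS supernatant after ultracentrifugation, referenced to a 50 μM solution in DMSO.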

CHI Log D procedure = format: physicochemical; conditions: for chromatographic logD: pH 7.4, CHI Log D; for CHI Log D: pH 7.4
[2] = fluorescence polarization, read-out: beta-Catenin FP IC50

Compound | IC50 [1, 2] [µM] | Solubility (Solubility in PBS; Solubility (uM)) [µM] | chromatographic logD (CHI Log D procedure) | IC50 ([1]; read-out: FP EC50) [µM] | Solubility (Solubility in PBS) [µM] | CHI Log D (CHI Log D procedure)
CC[C@H](NC(=O)[C@H](Cc1csc2ccccc12)NC(=O)[C@H](Cc1ccccc1)NC(=O)[C@]1(C)CCCCCCC=CCCCC2(CCCC=CC[C@]3(CCCN3C(C)=O)C(=O)N[C@@H](CC(=O)O)C(=O)N[C@@H](C)C(=O)N2)C(=O)N[C@@H](CC(=O)O)C(=O)N[C@@H](CCC(=O)O)C(=O)N[C@@H](C)C(=O)N[C@@H](C)C(=O)N[C@@H](Cc2ccccc2)C(=O)N[C@@H](CCC(N)=O)C(=O)N1)C(N)=O (stereo partly drawn) [I-509, Ac-PL3-Asp-Ala-B5-Asp-Glu-Ala-Ala-Phe-Gln-S8-Phe-BztA-Abu-NH2] | 0.099 | 41 (≈ 73.7 µg/mL) | 2.16 |  |  | 
COc1ccccc1C[C@H](NC(=O)[C@]1(C)CCCCCCC=CCCCC2(CCCC=CC[C@]3(CCCN3C(C)=O)C(=O)N[C@@H](CC(=O)O)C(=O)N[C@@H](C)C(=O)N2)C(=O)N[C@@H](CC(=O)O)C(=O)N[C@@H](CCC(=O)O)C(=O)N[C@@H](C)C(=O)N[C@@H](C)C(=O)N[C@@H](Cc2ccccc2)C(=O)N[C@@H](CC(N)=O)C(=O)N1)C(=O)N[C@@H](Cc1csc2ccccc12)C(=O)N[C@@H](Cc1c[nH]cn1)C(N)=O (stereo partly drawn) [I-510, Ac-PL3-Asp-Ala-B5-Asp-Glu-Ala-Ala-Phe-Asn-S8-2OMeF-BztA-His-NH2] | 0.128 |  |  | 0.128 | 43 (≈ 80.2 µg/mL) | 2.057
COc1ccccc1C[C@H](NC(=O)[C@]1(C)CCCCCCC=CCCCC2(CCCC=CC[C@]3(CCCN3C(C)=O)C(=O)N[C@@H](CC(=O)O)C(=O)N[C@@H](C)C(=O)N2)C(=O)N[C@@H](CC(=O)O)C(=O)N[C@@H](CCC(=O)O)C(=O)N[C@@H](C)C(=O)N[C@@H](C)C(=O)N[C@@H](Cc2ccccc2)C(=O)N[C@@H](CC(N)=O)C(=O)N1)C(=O)N[C@@H](Cc1csc2ccccc12)C(=O)N[C@@H](Cc1c[nH]cn1)C(N)=O (stereo partly drawn) [I-511, Ac-PL3-Asp-Ala-B5-Asp-Glu-Ala-Ala-Phe-Asn-S8-2OMeF-BztA-His-NH2] | 0.04 |  |  | 0.04 | 29 (≈ 54.1 µg/mL) | 2.099
CC(=O)N1CCC[C@]12CC=CCCCC1(CCCC=CCCCCCC[C@@](C)(C(=O)N[C@@H](Cc3ccccc3C(N)=O)C(=O)N[C@@H](Cc3csc4ccccc34)C(=O)N[C@@H](Cc3c[nH]cn3)C(N)=O)NC(=O)[C@H](CC(N)=O)NC(=O)[C@H](Cc3ccccc3)NC(=O)[C@H](C)NC(=O)[C@H](C)NC(=O)[C@H](CCC(=O)O)NC(=O)[C@H](CC(=O)O)NC1=O)NC(=O)[C@H](C)NC(=O)[C@H](CC(=O)O)NC2=O (stereo partly drawn) [I-513, Ac-PL3-Asp-Ala-B5-Asp-Glu-Ala-Ala-Phe-Asn-S8-2CBMF-BztA-His-NH2] | 0.143 |  | 1.57 |  | 50 (≈ 94 µg/mL) | 
CC(=O)N1CCC[C@]12CC=CCCCC1(CCCC=CCCCCCC[C@@](C)(C(=O)N[C@@H](Cc3ccsc3)C(=O)N[C@@H](Cc3csc4ccccc34)C(=O)N[C@@H](Cc3c[nH]cn3)C(N)=O)NC(=O)[C@H](CC(N)=O)NC(=O)[C@H](Cc3ccccc3)NC(=O)[C@H](C)NC(=O)[C@H](C)NC(=O)[C@H](CCC(=O)O)NC(=O)[C@H](CC(=O)O)NC1=O)NC(=O)[C@H](C)NC(=O)[C@H](CC(=O)O)NC2=O (stereo partly drawn) [I-515, Ac-PL3-Asp-Ala-B5-Asp-Glu-Ala-Ala-Phe-Asn-S8-3Thi-BztA-His-NH2] | 0.054 |  |  | 0.054 | 46 (≈ 84.7 µg/mL) | 2.028
CC(=O)N1CCC[C@]12CC=CCCCC1(CCCC=CCCCCCC[C@@](C)(C(=O)N[C@@H](Cc3ccsc3)C(=O)N[C@@H](Cc3csc4ccccc34)C(=O)N[C@@H](Cc3c[nH]cn3)C(N)=O)NC(=O)[C@H](CC(N)=O)NC(=O)[C@H](Cc3ccccc3)NC(=O)[C@H](C)NC(=O)[C@H](C)NC(=O)[C@H](CCC(=O)O)NC(=O)[C@H](CC(=O)O)NC1=O)NC(=O)[C@H](C)NC(=O)[C@H](CC(=O)O)NC2=O (stereo partly drawn) [I-516, Ac-PL3-Asp-Ala-B5-Asp-Glu-Ala-Ala-Phe-Asn-S8-3Thi-BztA-His-NH2] | 0.023 |  |  | 0.023 | 42 (≈ 77.4 µg/mL) | 2.072
CC(=O)N1CCC[C@]12CC=CCCCC1(CCCC=CCCCCCC[C@@](C)(C(=O)N[C@@H](Cc3ccsc3)C(=O)N[C@@H](Cc3csc4ccccc34)C(=O)N[C@@H](CCC(N)=O)C(N)=O)NC(=O)[C@H](CC(N)=O)NC(=O)[C@H](Cc3ccccc3)NC(=O)[C@H](C)NC(=O)[C@H](C)NC(=O)[C@H](CCC(=O)O)NC(=O)[C@H](CC(=O)O)NC1=O)NC(=O)[C@H](C)NC(=O)[C@H](CC(=O)O)NC2=O (stereo partly drawn) [I-518, Ac-PL3-Asp-Ala-B5-Asp-Glu-Ala-Ala-Phe-Asn-S8-3Thi-BztA-Gln-NH2] | 0.143 |  |  | 0.143 | 39 (≈ 71.5 µg/mL) | 1.966
CC[C@H](C)[C@@H]1NC(=O)[C@H](CC(=O)O)NC(=O)[C@]2(CC=CCCCC3(CCCC=CCCCCCC[C@@](C)(C(=O)N[C@@H](Cc4ccsc4)C(=O)N[C@@H](Cc4csc5ccccc45)C(=O)N[C@@H](CCC(N)=O)C(N)=O)NC(=O)[C@H](CC(N)=O)NC(=O)[C@H](Cc4ccccc4)NC(=O)[C@H](C)NC(=O)[C@H](C)NC(=O)[C@H](CCC(=O)O)NC(=O)[C@H](CC(=O)O)NC3=O)NC1=O)CCCN2C(C)=O (stereo partly drawn) [I-520, Ac-PL3-Asp-Ile-B5-Asp-Glu-Ala-Ala-Phe-Asn-S8-3Thi-BztA-Gln-NH2] | 0.045 |  |  | 0.045 | 50 (≈ 93.8 µg/mL) | 2.313
CCC[C@@H]1NC(=O)[C@H](CC(=O)O)NC(=O)[C@]2(CC=CCCCC3(CCCC=CCCCCCC[C@@](C)(C(=O)N[C@@H](Cc4ccccc4)C(=O)N[C@@H](Cc4csc5ccccc45)C(=O)N[C@@H](CCC(N)=O)C(N)=O)NC(=O)[C@H](CCC(N)=O)NC(=O)[C@H](Cc4ccccc4)NC(=O)[C@H](C)NC(=O)[C@H](C)NC(=O)[C@H](CCC(=O)O)NC(=O)[C@H](CC(=O)O)NC3=O)NC1=O)CCCN2C(C)=O (stereo partly drawn) [I-522, Ac-PL3-Asp-Nva-B5-Asp-Glu-Ala-Ala-Phe-Gln-S8-Phe-BztA-Gln-NH2] | 0.075 |  |  | 0.075 | 50 (≈ 93.5 µg/mL) | 2.214
CCC[C@@H]1NC(=O)[C@H](CC(=O)O)NC(=O)[C@]2(CC=CCCCC3(CCCC=CCCCCCC[C@@](C)(C(=O)N[C@@H](Cc4ccccc4)C(=O)N[C@@H](Cc4csc5ccccc45)C(=O)N[C@@H](CCC(N)=O)C(N)=O)NC(=O)[C@H](CCC(N)=O)NC(=O)[C@H](Cc4ccccc4)NC(=O)[C@H](C)NC(=O)[C@H](C)NC(=O)[C@H](CCC(=O)O)NC(=O)[C@H](CC(=O)O)NC3=O)NC1=O)CCCN2C(C)=O (stereo partly drawn) [I-523, Ac-PL3-Asp-Nva-B5-Asp-Glu-Ala-Ala-Phe-Gln-S8-Phe-BztA-Gln-NH2] | 0.044 |  |  | 0.044 | 50 (≈ 93.5 µg/mL) | 2.241
CC(=O)N1CCC[C@]12CC=CCCCC1(CCCC=CCCCCCC[C@@](C)(C(=O)N[C@@H](Cc3ccccc3)C(=O)N[C@@H](Cc3csc4ccccc34)C(=O)N[C@@H](CCC(N)=O)C(N)=O)NC(=O)[C@H](CC(N)=O)NC(=O)[C@H](Cc3cscn3)NC(=O)[C@H](C)NC(=O)[C@H](C)NC(=O)[C@H](CCC(=O)O)NC(=O)[C@H](CC(=O)O)NC1=O)NC(=O)[C@H](C)NC(=O)[C@H](CC(=O)O)NC2=O (stereo partly drawn) [I-524, Ac-PL3-Asp-Ala-B5-Asp-Glu-Ala-Ala-4Thz-Asn-S8-Phe-BztA-Gln-NH2] | 2.55 |  | 1.89 |  | 50 (≈ 91.7 µg/mL) | 
CC(=O)N1CCC[C@]12CC=CCCCC1(CCCC=CCCCCCC[C@@](C)(C(=O)N[C@@H](Cc3ccccc3)C(=O)N[C@@H](Cc3csc4ccccc34)C(=O)N[C@@H](CCC(N)=O)C(N)=O)NC(=O)[C@H](CC(N)=O)NC(=O)[C@H](Cc3ccccc3)NC(=O)[C@H](C)NC(=O)[C@H](C)NC(=O)[C@H](CNS(C)(=O)=O)NC(=O)[C@H](CC(=O)O)NC1=O)NC(=O)[C@H](C)NC(=O)[C@H](CC(=O)O)NC2=O (stereo partly drawn) [I-533, Ac-PL3-Asp-Ala-B5-Asp-[MeSO2]Dap-Ala-Ala-Phe-Asn-S8-Phe-BztA-Gln-NH2] | 0.155 | 44 (≈ 81.9 µg/mL) | 2.29 |  |  | 
CC(=O)N1CCC[C@]12CC=CCCCC1(CCCC=CCCCCCC[C@@](C)(C(=O)N[C@@H](Cc3ccccc3)C(=O)N[C@@H](Cc3csc4ccccc34)C(=O)N[C@@H](CCC(N)=O)C(N)=O)NC(=O)[C@H](CC(N)=O)NC(=O)[C@H](Cc3ccccc3)NC(=O)[C@H](C)NC(=O)[C@H](C)NC(=O)[C@H](CCC(=O)O)NC(=O)[C@H](CC(=O)O)NC1=O)NC(=O)[C@H](C)NC(=O)[C@H](CNS(C)(=O)=O)NC2=O (stereo partly drawn) [I-534, Ac-PL3-[MeSO2]Dap-Ala-B5-Asp-Glu-Ala-Ala-Phe-Asn-S8-Phe-BztA-Gln-NH2] | 5 | 31 (≈ 58.2 µg/mL) | 2.43 |  |  | 
